# Experimental data taken from ChEMBL document CHEMBL4665648, “Potent and selective inhibitors of receptor-interacting protein kinase 1 that lack an aromatic back pocket group” (Bioorg Med Chem Lett, 2019).
# Assays:
# [1] = target: Macrophage-stimulating protein receptor (Homo sapiens) (UniProt Q04912); assay: Inhibition of recombinant human GST-tagged full length RON (983 to 1400 residues) expressed in baculovirus expression system using Tyr 06 as substrate at 10 uM incubated for 60 mins by Z'-Lyte assay relative to control
# Chain of Macrophage-stimulating protein receptor (Homo sapiens) (Q04912 whole entry, the tested form may be a part): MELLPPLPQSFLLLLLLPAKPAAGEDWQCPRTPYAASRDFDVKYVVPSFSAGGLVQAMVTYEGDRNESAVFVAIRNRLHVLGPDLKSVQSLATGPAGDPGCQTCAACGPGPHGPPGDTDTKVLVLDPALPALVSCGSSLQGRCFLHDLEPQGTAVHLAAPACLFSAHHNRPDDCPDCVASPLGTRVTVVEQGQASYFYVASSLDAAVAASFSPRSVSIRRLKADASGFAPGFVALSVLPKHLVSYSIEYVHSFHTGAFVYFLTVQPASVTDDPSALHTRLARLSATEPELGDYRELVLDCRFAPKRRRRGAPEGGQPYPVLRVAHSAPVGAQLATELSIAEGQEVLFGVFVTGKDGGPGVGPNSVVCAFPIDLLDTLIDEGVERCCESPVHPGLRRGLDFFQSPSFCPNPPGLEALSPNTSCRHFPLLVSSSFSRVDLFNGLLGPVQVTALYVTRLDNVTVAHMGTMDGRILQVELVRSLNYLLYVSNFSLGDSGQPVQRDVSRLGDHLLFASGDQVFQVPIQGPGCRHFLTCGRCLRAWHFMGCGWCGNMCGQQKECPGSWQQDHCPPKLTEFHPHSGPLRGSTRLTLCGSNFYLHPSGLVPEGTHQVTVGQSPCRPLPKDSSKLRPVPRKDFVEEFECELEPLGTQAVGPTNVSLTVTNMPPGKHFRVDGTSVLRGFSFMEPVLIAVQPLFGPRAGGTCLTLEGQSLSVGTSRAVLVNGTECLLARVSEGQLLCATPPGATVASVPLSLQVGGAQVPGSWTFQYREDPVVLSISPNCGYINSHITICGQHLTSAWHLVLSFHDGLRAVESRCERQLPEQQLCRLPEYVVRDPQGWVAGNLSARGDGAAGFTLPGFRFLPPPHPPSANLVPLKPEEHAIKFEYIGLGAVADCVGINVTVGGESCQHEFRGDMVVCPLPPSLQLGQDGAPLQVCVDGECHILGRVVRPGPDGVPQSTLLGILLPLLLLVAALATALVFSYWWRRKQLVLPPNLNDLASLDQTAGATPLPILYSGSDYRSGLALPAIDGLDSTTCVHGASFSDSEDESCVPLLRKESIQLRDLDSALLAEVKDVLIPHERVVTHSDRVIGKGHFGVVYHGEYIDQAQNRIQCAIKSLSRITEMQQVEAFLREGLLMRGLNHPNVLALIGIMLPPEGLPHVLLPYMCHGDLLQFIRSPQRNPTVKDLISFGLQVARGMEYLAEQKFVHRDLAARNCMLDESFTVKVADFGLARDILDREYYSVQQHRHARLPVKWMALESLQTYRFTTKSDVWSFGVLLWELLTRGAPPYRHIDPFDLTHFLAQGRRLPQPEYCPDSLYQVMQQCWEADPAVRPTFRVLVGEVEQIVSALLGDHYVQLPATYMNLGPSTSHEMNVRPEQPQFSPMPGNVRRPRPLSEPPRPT
# [2] = target: Calcium/calmodulin-dependent protein kinase type II subunit alpha (Homo sapiens) (UniProt Q9UQM7); assay: Inhibition of recombinant human His-tagged full length CAMK2alpha expressed in baculovirus expression system using Ser/Thr 04 as substrate at 10 uM incubated for 60 mins by Z'-Lyte assay relative to control
# [3] = target: Tyrosine-protein kinase Mer (Homo sapiens) (UniProt Q12866); assay: Inhibition of recombinant human GST-tagged MER (578 to 872 residues) expressed in baculovirus expression system using Tyr 02 as substrate at 10 uM incubated for 60 mins by Z'-lyte assay relative to control
# [4] = target: Protein kinase C delta type (Homo sapiens) (UniProt Q05655); assay: Inhibition of recombinant human GST-tagged full length PKCdelta expressed in insect expression system using Ser/Thr 07 as substrate at 10 uM incubated for 60 mins by Z'-lyte assay relative to control
# Chain of Protein kinase C delta type (Homo sapiens) (Q05655 whole entry, looked up, the tested form may be a part): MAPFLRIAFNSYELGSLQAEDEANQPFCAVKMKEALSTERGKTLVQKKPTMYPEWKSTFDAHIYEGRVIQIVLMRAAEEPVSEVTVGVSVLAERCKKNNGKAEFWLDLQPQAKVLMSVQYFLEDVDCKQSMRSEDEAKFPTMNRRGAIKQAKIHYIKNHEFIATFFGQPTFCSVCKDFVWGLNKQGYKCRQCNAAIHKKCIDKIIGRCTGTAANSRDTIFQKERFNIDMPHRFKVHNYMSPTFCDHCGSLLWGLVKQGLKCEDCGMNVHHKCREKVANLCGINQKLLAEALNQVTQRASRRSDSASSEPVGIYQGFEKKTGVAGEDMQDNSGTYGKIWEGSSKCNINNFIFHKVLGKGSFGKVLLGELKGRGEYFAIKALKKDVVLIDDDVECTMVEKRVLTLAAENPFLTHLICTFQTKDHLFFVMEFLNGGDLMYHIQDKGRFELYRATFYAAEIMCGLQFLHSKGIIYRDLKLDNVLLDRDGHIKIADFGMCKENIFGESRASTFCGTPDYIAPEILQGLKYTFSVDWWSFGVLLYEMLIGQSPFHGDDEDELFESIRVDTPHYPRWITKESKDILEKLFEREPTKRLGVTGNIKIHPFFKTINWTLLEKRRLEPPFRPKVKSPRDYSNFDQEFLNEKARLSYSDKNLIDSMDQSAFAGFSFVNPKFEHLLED
# [5] = target: Serine/threonine-protein kinase TAO2 (Homo sapiens) (UniProt Q9UL54); assay: Inhibition of recombinant human GST-tagged TAO2 (1 to 314 residues) expressed in baculovirus expression system using Ser/Thr 07 as substrate at 10 uM incubated for 60 mins by Z'-Lyte assay relative to control
# Chain of Serine/threonine-protein kinase TAO2 (Homo sapiens) (Q9UL54 whole entry, the tested form may be a part): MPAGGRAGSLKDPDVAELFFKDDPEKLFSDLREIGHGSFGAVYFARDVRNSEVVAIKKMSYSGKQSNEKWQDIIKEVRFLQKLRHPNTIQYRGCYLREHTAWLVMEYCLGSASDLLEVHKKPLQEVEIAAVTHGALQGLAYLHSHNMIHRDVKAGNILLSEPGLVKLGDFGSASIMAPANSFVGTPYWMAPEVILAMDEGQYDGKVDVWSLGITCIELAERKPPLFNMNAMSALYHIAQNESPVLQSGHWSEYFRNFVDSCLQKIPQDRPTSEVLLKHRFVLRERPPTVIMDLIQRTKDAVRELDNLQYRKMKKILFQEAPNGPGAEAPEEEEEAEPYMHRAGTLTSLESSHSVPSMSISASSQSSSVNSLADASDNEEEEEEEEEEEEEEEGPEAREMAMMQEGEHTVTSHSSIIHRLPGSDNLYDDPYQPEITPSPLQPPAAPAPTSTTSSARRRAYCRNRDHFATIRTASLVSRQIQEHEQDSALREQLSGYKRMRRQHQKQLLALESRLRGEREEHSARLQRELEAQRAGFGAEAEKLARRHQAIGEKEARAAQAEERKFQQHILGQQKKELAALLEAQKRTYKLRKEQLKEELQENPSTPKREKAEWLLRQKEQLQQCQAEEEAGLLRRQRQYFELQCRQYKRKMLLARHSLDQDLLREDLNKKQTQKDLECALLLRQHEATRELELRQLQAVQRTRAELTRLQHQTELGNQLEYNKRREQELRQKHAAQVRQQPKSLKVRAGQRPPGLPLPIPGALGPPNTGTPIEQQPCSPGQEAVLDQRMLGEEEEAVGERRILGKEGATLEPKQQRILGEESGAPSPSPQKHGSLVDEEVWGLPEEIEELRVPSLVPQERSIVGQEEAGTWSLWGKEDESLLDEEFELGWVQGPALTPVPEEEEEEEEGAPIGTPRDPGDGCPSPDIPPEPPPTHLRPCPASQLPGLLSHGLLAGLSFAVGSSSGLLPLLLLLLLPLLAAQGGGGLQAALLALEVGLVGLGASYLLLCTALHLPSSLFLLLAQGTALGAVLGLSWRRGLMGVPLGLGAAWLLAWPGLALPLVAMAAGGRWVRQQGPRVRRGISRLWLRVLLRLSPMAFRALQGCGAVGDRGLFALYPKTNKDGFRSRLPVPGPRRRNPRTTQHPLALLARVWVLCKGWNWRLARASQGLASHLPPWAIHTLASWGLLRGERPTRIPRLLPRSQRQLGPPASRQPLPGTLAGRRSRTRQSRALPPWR
# [6] = target: Tyrosine-protein kinase SYK (Homo sapiens) (UniProt P43405); assay: Inhibition of recombinant human N-terminalGST-tagged full length SYK expressed in baculovirus expression system using Tyr 02 as substrate at 10 uM incubated for 60 mins by Z'-Lyte assay relative to control
# [7] = target: Tyrosine-protein kinase CSK (Homo sapiens) (UniProt P41240); assay: Inhibition of recombinant human GST-tagged full length CSK expressed in Escherichia coli expression system using Tyr 02 as substrate at 10 uM incubated for 60 mins by Z'-Lyte assay relative to control
# [8] = Volume of distribution in Sprague-Dawley rat at 0.5 mg/kg, iv or 2 mg/kg, po; assay type: ADME, organism-based; settings: in vivo
# [9] = target: Mitogen-activated protein kinase 13 (Homo sapiens) (UniProt O15264); assay: Inhibition of recombinant human His-tagged full length p38 delta expressed in baculovirus expression system using Ser/Thr 03 as substrate at 10 uM incubated for 60 mins by Z'-Lyte assay relative to control
# Chain of Mitogen-activated protein kinase 13 (Homo sapiens) (O15264 whole entry): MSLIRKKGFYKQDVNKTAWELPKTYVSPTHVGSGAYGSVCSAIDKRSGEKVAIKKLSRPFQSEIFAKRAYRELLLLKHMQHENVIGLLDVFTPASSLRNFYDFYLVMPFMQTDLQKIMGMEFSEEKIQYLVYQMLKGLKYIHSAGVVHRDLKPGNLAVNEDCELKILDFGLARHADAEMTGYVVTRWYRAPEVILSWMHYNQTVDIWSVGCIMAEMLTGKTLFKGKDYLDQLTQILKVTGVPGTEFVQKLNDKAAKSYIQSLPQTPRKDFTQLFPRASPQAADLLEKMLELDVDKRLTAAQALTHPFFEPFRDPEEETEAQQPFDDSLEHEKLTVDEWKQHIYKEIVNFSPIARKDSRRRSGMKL
# [10] = Inhibition of necroptosis in human HT-29 cells assessed as reduction in TNFalpha/BV6/zVAD-fmk-induced cell death incubated for 18 hrs by Cell Titer Glo luminescent cell viability assay; assay type: functional, cell-based; settings: HT-29, 18 h
# [11] = target: Dual specificity mitogen-activated protein kinase kinase 1 (Homo sapiens) (UniProt Q02750); assay: Inhibition of recombinant human His-tagged full length MEK1 expressed in baculovirus expression system using Ser/Thr 03 as substrate at 10 uM incubated for 60 mins by Z'-lyte assay relative to control
# [12] = target: Tyrosine-protein kinase receptor UFO (Homo sapiens) (UniProt P30530); assay: Inhibition of recombinant human GST-tagged full length AXL expressed in insect expression system using Tyr 06 as substrate at 10 uM incubated for 60 mins by Z'-Lyte assay relative to control
# Chain of Tyrosine-protein kinase receptor UFO (Homo sapiens) (P30530 whole entry): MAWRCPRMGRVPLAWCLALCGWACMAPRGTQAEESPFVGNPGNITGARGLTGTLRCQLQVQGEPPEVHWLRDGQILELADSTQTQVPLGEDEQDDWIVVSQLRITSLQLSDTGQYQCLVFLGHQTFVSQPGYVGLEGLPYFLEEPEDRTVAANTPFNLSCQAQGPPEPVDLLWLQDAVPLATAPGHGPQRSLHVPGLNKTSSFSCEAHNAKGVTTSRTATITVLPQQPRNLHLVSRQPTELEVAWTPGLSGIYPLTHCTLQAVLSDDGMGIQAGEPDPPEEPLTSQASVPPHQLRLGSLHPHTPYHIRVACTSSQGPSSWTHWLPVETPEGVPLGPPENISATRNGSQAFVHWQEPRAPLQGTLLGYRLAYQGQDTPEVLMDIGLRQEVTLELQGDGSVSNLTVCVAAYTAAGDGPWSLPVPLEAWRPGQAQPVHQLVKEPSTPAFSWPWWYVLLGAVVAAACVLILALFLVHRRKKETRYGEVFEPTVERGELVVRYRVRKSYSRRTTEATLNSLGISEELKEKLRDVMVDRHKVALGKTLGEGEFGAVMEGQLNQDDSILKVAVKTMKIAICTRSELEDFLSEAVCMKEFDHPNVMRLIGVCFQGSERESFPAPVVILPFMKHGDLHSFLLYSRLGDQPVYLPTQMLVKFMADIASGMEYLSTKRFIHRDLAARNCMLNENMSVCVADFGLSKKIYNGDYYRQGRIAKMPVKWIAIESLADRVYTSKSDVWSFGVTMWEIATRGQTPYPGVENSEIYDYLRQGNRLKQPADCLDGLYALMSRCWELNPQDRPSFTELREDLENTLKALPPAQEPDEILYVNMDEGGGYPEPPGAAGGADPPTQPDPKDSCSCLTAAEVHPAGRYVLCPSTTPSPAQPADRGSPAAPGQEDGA
# [13] = Lipophilicity, logD of compound at pH 7.4; assay type: physicochemical; settings: buffer
# [14] = target: Serine/threonine-protein kinase Sgk3 (Homo sapiens) (UniProt Q96BR1); assay: Inhibition of recombinant human GST-tagged full length SGK3 (87 to 496 residues) expressed in baculovirus expression system using Ser/Thr 06 as substrate at 10 uM incubated for 60 mins by Z'-Lyte assay relative to control
# Chain of Serine/threonine-protein kinase Sgk3 (Homo sapiens) (Q96BR1 whole entry, the tested form may be a part): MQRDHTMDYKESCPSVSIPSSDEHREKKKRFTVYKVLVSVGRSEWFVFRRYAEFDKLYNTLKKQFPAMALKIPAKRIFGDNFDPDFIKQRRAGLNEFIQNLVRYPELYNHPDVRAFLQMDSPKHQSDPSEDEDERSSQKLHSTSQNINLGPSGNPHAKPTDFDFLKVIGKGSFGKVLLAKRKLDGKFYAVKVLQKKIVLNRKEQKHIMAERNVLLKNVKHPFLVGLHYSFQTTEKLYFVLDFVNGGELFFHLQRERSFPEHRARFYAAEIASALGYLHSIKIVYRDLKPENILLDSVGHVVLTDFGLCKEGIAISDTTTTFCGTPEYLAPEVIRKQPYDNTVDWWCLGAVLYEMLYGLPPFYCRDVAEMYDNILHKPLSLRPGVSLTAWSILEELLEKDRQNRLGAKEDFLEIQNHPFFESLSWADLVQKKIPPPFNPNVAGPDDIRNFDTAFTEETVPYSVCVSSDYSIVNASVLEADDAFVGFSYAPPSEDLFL
# [15] = target: cAMP-dependent protein kinase catalytic subunit PRKX (Homo sapiens) (UniProt P51817); assay: Inhibition of recombinant human GST-tagged full length PRKX expressed in baculovirus expression system using Ser/Thr 01 as substrate at 10 uM incubated for 60 mins by Z'-lyte assay relative to control
# [16] = target: Serine/threonine-protein kinase Chk2 (Homo sapiens) (UniProt O96017); assay: Inhibition of recombinant human His-tagged full length CHK2 expressed in baculovirus expression system using Ser/Thr 07 as substrate at 10 uM incubated for 60 mins by Z'-Lyte assay relative to control
# [17] = target: Mitogen-activated protein kinase 8 (Homo sapiens) (UniProt P45983); assay: Inhibition of recombinant human His-tagged full length JNK1alpha1 expressed in baculovirus expression system using Ser/Thr 04 as substrate at 10 uM incubated for 60 mins by Z'-lyte assay relative to control
# [18] = target: Serine/threonine-protein kinase pim-1 (Homo sapiens) (UniProt P11309); assay: Inhibition of recombinant human His-tagged full length PIM1 expressed in baculovirus expression system using Ser/Thr 07 as substrate at 10 uM incubated for 60 mins by Z'-lyte assay relative to control
# [19] = target: Serine/threonine-protein kinase BRSK1 (Homo sapiens) (UniProt Q8TDC3); assay: Inhibition of recombinant human GST-tagged full length BrSK1 expressed in baculovirus expression system using Ser/Thr 21 as substrate at 10 uM incubated for 60 mins by Z'-Lyte assay relative to control
# [20] = target: Serine/threonine-protein kinase Nek1 (Homo sapiens) (UniProt Q96PY6); assay: Inhibition of recombinant human GST-tagged NEK1 (1 to 505 residues) expressed in baculovirus expression system using Ser/Thr 07 as substrate at 10 uM incubated for 60 mins by Z'-lyte assay relative to control
# [21] = target: Mitogen-activated protein kinase 11 (Homo sapiens) (UniProt Q15759); assay: Inhibition of recombinant human His-tagged full length p38 beta expressed in baculovirus expression system using Ser/Thr 15 as substrate at 10 uM incubated for 60 mins by Z'-Lyte assay relative to control
# [22] = target: Serine/threonine-protein kinase N1 (Homo sapiens) (UniProt Q16512); assay: Inhibition of recombinant human GST-tagged full length PRK1 expressed in baculovirus expression system using Ser/Thr 07 as substrate at 10 uM incubated for 60 mins by Z'-lyte assay relative to control
# [23] = target: Megakaryocyte-associated tyrosine-protein kinase (Homo sapiens) (UniProt P42679); assay: Inhibition of recombinant human His-tagged full length Hyl expressed in Escherichia coli expression system using Tyr 01 as substrate at 10 uM incubated for 60 mins by Z'-Lyte assay relative to control
# [24] = target: Phosphorylase b kinase gamma catalytic chain, liver/testis isoform (Homo sapiens) (UniProt P15735); assay: Inhibition of recombinant human N-terminal GST-tagged full length PHKG2 expressed in baculovirus expression system using Ser/Thr 07 as substrate at 10 uM incubated for 60 mins by Z'-lyte assay relative to control
# [25] = target: Wee1-like protein kinase (Homo sapiens) (UniProt P30291); assay: Inhibition of tracer 178 binding to recombinant human N-terminal GST-tagged full length WEE1 expressed in baculovirus expression system at 10 uM incubated for 60 mins by Lanthascreen assay relative to control
smiles,measurement,setting,value
CN1C(=O)[C@@H](NC(=O)c2n[nH]c3ncc(C(F)(F)C(F)(F)F)cc23)COc2ccccc21,inhibition,[1],6%
same,inhibition,[2],1%
same,inhibition,[3],-4%
same,inhibition,[4],0.5%
same,inhibition,[5],5%
same,inhibition,[6],6%
same,inhibition,[7],2.5%
same,Vd,[8],2.8 L/kg
same,inhibition,[9],5.5%
same,EC50,[10],0.054 µM
same,inhibition,[11],-6.5%
same,inhibition,[12],6.5%
same,logD,[13],4.1
same,inhibition,[14],0.5%
same,inhibition,[15],4.5%
same,inhibition,[16],0.5%
same,inhibition,[17],8.5%
same,inhibition,[18],-5%
same,inhibition,[19],6%
same,inhibition,[20],9%
same,inhibition,[21],9%
same,inhibition,[22],1%
same,inhibition,[23],3.5%
same,inhibition,[24],3.5%
same,inhibition,[25],4%
